The text below walks through data of patent EP0697214A1, “Liposomal cyclosporin pharmaceutical formulations” (VESTAR, INC., priority 1994, dated 1996).

Assay [1] relates to resistant L1210 murine leukemia cells. Briefly: Multiple drug resistance test, 3H-thymidine uptake. In kind it is cell-based. To be noted: Mus musculus, daunorubicin alone, 24 hours, read-out: IC₅₀ in Resistant Cells. On the procedure: (§1) Multiple drug resistance (MDR) was tested in vitro using resistant and sensitive L1210 murine leukemia cells. Liposomal Cyclosporine was obtained as described in Example 13 (19:3:1 formulation HEPC:DMPG:Cyclosporine) except that a spray dried lipid powder was used and the unilamellar vesicles were formed through homogenization. Daunorubicin, Cyclosporine-CreL, and liposomal Cyclosporine were diluted in RPMI-1640. The final concentration of daunorubicin in each well was 0, 0.3, 1, 3, 10, 30, 100 or 1000 ng/ml. The final concentration of Cyclosporine-CreL in each well was 0, 10, 70, 300, 1,250, 5,000, 20,000, 80,000, 160,000, 310,000, 620,000, or 1,050,000 ng/ml. The final concentration of liposomal Cyclosporine in each well was 0, 10, 70, 300, 1,250, 5,000, 20,000, 80,000, 160,000, 310,000, 620,000, or 1,050,000 ng/ml. Fifty microliters of each daunorubicin concentration was added to one well of a flat bottom 96-well culture plate. Fifty microliters of the appropriate concentration of Cyclosporine-CreL or liposomal Cyclosporine were also added to each well. Each drug combination was tested in triplicate. […]
(§2) After 20 hours of incubation, the cells were pulsed with 0.5µCu of³H-Thymidine per well. […] The cells in each well were then harvested using a Skatron Harvester and counted in a beta liquid scintillation counter (LKB). The IC₅₀ was calculated using a linear regression treatment of the data.

Assay [2] relates to sensitive L1210 murine leukemia cells. Briefly: Multiple drug resistance test, 3H-thymidine uptake. In kind it is cell-based. Particulars: Mus musculus, daunorubicin alone, 24 hours, read-out: IC₅₀ in Sensitive Cells. How it is done: as §1, §2

The structures appear in SMILES notation.

With `COc1cccc2c1C(=O)c1c(O)c3c(c(O)c1C2=O)C[C@@](O)(C(C)=O)C[C@@H]3O[C@H]1C[C@H](N)[C@H](O)[C@H](C)O1` [Daunorubicin], the IC50 in assay [1] is 0.722 µg/mL; in assay [2], 0.47 µg/mL.
